The values that follow come from US8633319B2, “7-(1H-pyrazol-4-yl)-1,6-naphthyridine compounds as Syk inhibitors” (Glaxo Group Limited, priority 2010, dated 2014).

Where “and” joins values, the source holds several entries; their conditions need not be identical. Identical values can stand only once. Like-named read-outs stand apart in the source and are kept apart here. Where only a bound is given, the exact number is not on record here.

Test [1] deals with T1, SYK lysate (Homo sapiens, UniProt P43405).
T1 construct: Stimulation of Ramos Cells with Anti-IgM Ab to Produce Syk & Preparation of Lysates; endogenous in cells; host or cells: Ramos B cells (human Burkitt's lymphoma, clone 296.4C10, ATCC), stimulated with anti-IgM and lysed in 1% Triton X-100
Description: Basic Syk Enzyme Activity. The format is biochemical. The conditions noted are these: read-out: average pIC50 (converted). The method, then: 3 μl of SYK lysate diluted 16-fold in assay buffer (20 mM TRIS pH 7.4, 0.01% BSA, 0.1% Pluronic F-68) was added to wells containing 0.1 μl of various concentrations of compound or DMSO vehicle (1.7% final) in a Greiner low volume 384 well black plate. Following 15 min pre-incubation at room temperature, the reaction was initiated by the addition of 3 μl of substrate reagent containing Y7 Sox peptide, (Invitrogen Cat. # KNZ3071, 5 μM final), ATP (35 μM final) and MgCl2 (10 mM final) in assay buffer. The reaction was incubated at room temperature before measuring fluorescence intensity (λex 360/λem 485) on an Envision plate reader (Perkin Elmer Life Sciences, Waltham, Mass., USA) at 15 min and 55 min post-substrate addition.
Ramos B Cells (human B cells of Burkitt's lymphoma, clone 296.4C10, ATCC) were cultured in suspension in growth medium (RPMI-1640, Sigma; supplemented with 2 mM L-glutamine, Gibco; 10 mM Hepes, Sigma; 1 mM sodium pyruvate, Sigma; 10% v/v heat-inactivated FCS, Gibco). Cells were grown in Corning Cellstacks (6360 cm^2) in 1 liter volume and viability and cell density were monitored daily. Cells were maintained at <1.5×10e6/ml and >92% viability.
Cells were stimulated at 20×10^6 cells/ml using 15 ug/ml (final concentration) anti-IgM antibody. Following harvest (as described above), a total of 4×10^9 cells were resuspended in 180 ml pre-warmed (37° C.) DPBS in a Corning 500 ml centrifuge bottle. 20 ml anti-IgM antibody at 150 ug/ml were added to each 500 ml centrifuge bottle (working stock made up in DPBS pre-warmed to 37° C.). Cells were incubated for exactly 5 min at 37° C. following the addition of anti IgM antibody. Following 5 min stimulation, 300 ml ice-cold DPBS were added to each bottle to stop the stimulation (temperature drops to ˜12° C.) then cells were centrifuged at 2000 rpm (Sorvall Legend RT+ centrifuge—pre-chilled to 4° C.). Cells were washed by resuspension in ice-cold DPBS and centrifugation as above. The cell pellet was then lysed in ice-cold lysis buffer containing 1% triton-x-100 at a ratio of 150 ul/1×10^7 cells (i.e. 48 ml lysis buffer). Following the addition of lysis buffer, the cells were pipetted up & down & kept on ice for 15 min. The clarified lysate was then obtained by centrifugation (Sorvall Evolution RC (SLA-1500 rotor, ˜20,000 g (˜14,500 rpm), 45 min, 4° C.).
Lysate was aliquoted, snap-frozen on dry-ice & stored at −80° C. prior to assay.
Lysis Buffer: 50 mM TRIS pH7.5+150 mM NaCl+1% Triton-X-100+2 mM EGTA+1:100 dilution inhibitor cocktails (phosphatase inhibitor cocktail set II, calbiochem cat no. 524625 & protease inhibitor cocktail set V, calbiochem cat no. 539137)

Test [2] concerns Whole blood B cells. Description: CD69 Whole Blood Assay. It counts as cell-based. The conditions noted are these: Homo sapiens, B-cell, anti-IgM stimulated. The method, then: Whole blood B cells are stimulated ex-vivo using anti-IgM. […] The subsequent autophosphorylation of Syk leads to initiation of a signalling cascade resulting in B cell activation as indicated by expression of the activation marker CD69 on the cell surface. CD20/CD69+ve whole blood B cells are detected by flow cytometry.
100 μl heparinised human blood was added to a 5 ml polypropylene tube containing 1 μl appropriately diluted compound solution and incubated for 25 min at 37° C. with 5% CO2. B cells were stimulated with 10 μl Fab′2 fragments of goat anti-human IgM (43 μg/ml final concentration) for a further 3.5 h under the conditions previously described. The red blood cells were lysed and all other cells fixed by the addition of 2 ml Lyse/Fix buffer for 10 min at room temperature.
The cells were stained using a cocktail of mouse anti-human CD20 FITC and mouse anti-human CD69 PE conjugated antibodies. CD20/CD69+ve B cells present in the sample were detected by flow cytometry.
Compound was prepared as a 10 mM stock in DMSO, further diluted down in DMSO to 1 mM and a dilution series prepared in DMSO using 7 successive 3-fold dilutions to give the final concentration range to be tested of 1×10^−5 to 4.57×10^−9M. Compound dilutions were prepared using the Biomek 2000 automated robotic pipetting system.

[3] abbreviates: as the free base, read-out: average IC50.
The mark [4] stands for this setting: hydrochloric acid salts, read-out: average IC50.
Where [5] appears, read: hydrochloric acid salts, read-out: average pIC50 (converted).

Take `CCn1cc(-c2cc3ncccc3c(NC[C@]3(F)CCCNC3)n2)cn1` [Example 1, 7-(1-Ethyl-1H-pyrazol-4-yl)-N-{[(3S)-3-fluoro-3-piperidinyl]methyl}-1,6-naphthyridin-5-amine]: the IC50 in test [1] (as the free base) is ≤ 100 nM and 25.1 nM; in test [1] (hydrochloric acid salts), at most 316 nM; in test [2] (setting [3]), below 1000 nM; in test [2] (setting [4]) it was below 1000 nM; in test [2] (setting [5]), at most 1000 nM.
`CC(C)(C)n1cc(-c2cc3ncccc3c(NC[C@]3(F)CCCNC3)n2)cn1` [Example 2, 7-[1-(1,1-Dimethylethyl)-1H-pyrazol-4-yl]-N-{[(3S)-3-fluoro-3-piperidinyl]methyl}-1,6-naphthyridin-5-amine]: the IC50 was ≤ 100 nM and 20 nM in test [1] (as the free base); at most 316 nM in test [1] (hydrochloric acid salts); below 1000 nM in test [2] (setting [3]); below 1000 nM in test [2] (setting [4]); at most 1000 nM in test [2] (setting [5]).
As for `COCn1cc(-c2cc3ncccc3c(NC[C@]3(F)CCCNC3)n2)cn1` [Example 3, N-{[(3S)-3-Fluoro-3-piperidinyl]methyl}-7-{1-[(methyloxy)methyl]-1H-pyrazol-4-yl}-1,6-naphthyridin-5-amine], the IC50 in test [1] (as the free base) was ≤ 100 nM and 63.1 nM; in test [1] (hydrochloric acid salts), at most 316 nM; in test [2] (setting [3]), below 1000 nM; in test [2] (setting [4]), below 1000 nM; in test [2] (setting [5]) it was at most 1000 nM.
Turning to `CCn1cc(-c2cc3ncccc3c(OC[C@]3(F)CCCNC3)n2)cn1` [Example 4, 7-(1-Ethyl-1H-pyrazol-4-yl)-5-({[(3S)-3-fluoro-3-piperidinyl]methyl}oxy)-1,6-naphthyridine], the IC50 was ≤ 100 nM and 7.94 nM in test [1] (as the free base); at most 316 nM in test [1] (hydrochloric acid salts); below 1000 nM in test [2] (setting [3]); below 1000 nM in test [2] (setting [4]); at most 1000 nM in test [2] (setting [5]).
